In ChEMBL document CHEMBL4699589, “4-Hydroxy Pyridones from Heterologous Expression and Cultivation of the Native Host” (2020):

Assays:
Format in all cases: functional
Escherichia coli = test: Antibacterial activity against Escherichia coli assessed as reduction in microbial growth after 1 day by two-fold dilution method; details: 24 h
Staphylococcus aureus = test: Antibacterial activity against Staphylococcus aureus 209P assessed as reduction in microbial growth after 1 day by two-fold dilution method; details: 24 h
Candida albicans = test: Antifungal activity against Candida albicans ATCC96901 assessed as reduction in microbial growth after 2 to 3 days by two-fold dilution method; details: time day 2-3
Cryptococcus neoformans = test: Antifungal activity against Cryptococcus neoformans assessed as reduction in microbial growth after 2 to 3 days by two-fold dilution method; details: time day 2-3

SMILES	MIC (Escherichia coli) [µM]	MIC (Staphylococcus aureus) [µM]	MIC (Candida albicans) [µM]	MIC (Cryptococcus neoformans) [µM]
C/C=C/C[C@H](C)C[C@H](C)C(=O)C1=C(O)/C(=C/c2ccc(O)cc2)NC1=O	> 100	> 100	> 100	> 100
C/C=C/C[C@H](C)C[C@H](C)C(=O)C1=C(O)[C@H]([C@@H](O)c2ccc(O)cc2)NC1=O	> 100	> 100	> 100	25
C[C@H]1[C@H](O)[C@@H](C)C[C@@H]2[C@@H]1c1c(c(-c3ccc(O)cc3)c[nH]c1=O)O[C@H]2C	> 100	> 100	> 100	> 100
C[C@H]1C[C@@H]2[C@H](c3c(c(-c4ccc(O)cc4)c[nH]c3=O)O[C@@H]2C)[C@@H](C)C1	> 100	> 100	> 100	6.25
C/C=C/C[C@H](C)C[C@H](C)C(=O)C1=C(O)[C@H](Cc2ccc(O)cc2)NC1=O	> 100	> 100	> 100	> 100
C/C=C/C[C@H](C)C[C@H](C)C(=O)c1c(O)cc[nH]c1=O	> 100	> 100	> 100	> 100

Now from value to molecule:

MIC (Escherichia coli) [µM]	MIC (Staphylococcus aureus) [µM]	MIC (Candida albicans) [µM]	MIC (Cryptococcus neoformans) [µM]	SMILES
> 100	> 100	> 100		C/C=C/C[C@H](C)C[C@]1(C)Oc2c(-c3ccc(O)cc3)c[nH]c(=O)c2[C@@H]1O
> 100	> 100	> 100	6.25	C/C=C/C[C@H](C)C[C@H](C)C(=O)c1c(O)c(-c2ccc(O)cc2)c[nH]c1=O
> 100	> 100	> 100		C/C=C/C[C@H](C)C[C@@]1(C)Oc2c(-c3ccc(O)cc3)c[nH]c(=O)c2[C@@H]1O
> 100	> 100	> 100		C/C=C/C[C@H](C)C[C@]1(C)Oc2c(-c3ccc(O)cc3)c[nH]c(=O)c2[C@H]1O
> 100	> 100	> 100		C/C=C/C[C@H](C)C[C@@]1(C)Oc2c(-c3ccc(O)cc3)c[nH]c(=O)c2[C@H]1O
